How the values were obtained:
Alk = target: T1, Alk (Homo sapiens, UniProt Q9UM73); assay: Tyrosine kinase assay (Kinase-Glo or AlphaScreen), Alk; details: biochemical tyrosine kinase assay
T1 construct: 6×His- or GST-tagged kinase domain fragments of the corresponding RTKs expressed in baculovirus system; host or cells: baculovirus system
Procedure, shortened: (§1)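 Inhibition measured on recombinant RTK kinase domains phosphorylating poly(Glu-Tyr) at 10 μM ATP, either by ATP depletion luminescence (37 °C, 60 min) or by PT66/PT100 AlphaScreen with biotinylated substrate (RT, 30 min plus 60 min bead step). For Alk, InsR and Jak2, enzyme titrated to ≤30% ATP consumption; IC50 from nonlinear regression.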

Ba/F3 = assay: Cell proliferation inhibition, Cell Titer-Glo, Ba/F3; type: cell-based; details: Mus musculus, BaF3; cell proliferation assay, Ba/F3 cells
Procedure, shortened: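 This standard 3-day proliferation assay used Ba/F3 cells plated in 384-well white plates with clear bottoms at 2500-5000 cells per well and treated with compound dilutions. Viable cell number was determined by mixing in Cell Titer-Glo developing reagent according to the manufacturer's protocol and counting luminescence. Percent viability relative to day 0 and untreated wells produced IC50 curves.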

K562 = assay: Cell proliferation inhibition, Cell Titer-Glo, K562; type: cell-based; details: Homo sapiens; cell proliferation assay, K562 cells
Procedure, shortened: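 Proliferation inhibition in human K562 cells was assessed in a standard 3-day assay. Cells (2500-5000 per well) in 384-well white, clear-bottomed plates received serial compound dilutions, then Cell Titer-Glo reagent was added per the manufacturer's protocol. Luminescence reflecting ATP content of metabolically active cells was counted in a multiwell reader, and IC50 curves were generated.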

Karpas-299 = assay: Cell proliferation inhibition, Cell Titer-Glo, Karpas-299; type: cell-based; details: Homo sapiens; cell proliferation assay, Karpas-299 cells
Procedure, shortened: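 In this standard 3-day proliferation assay, Karpas 299 cells plated at 2500-5000 cells per well in 384-well white, clear-bottomed plates were treated with compound dilutions. Cell Titer-Glo developing reagent was added following the manufacturer's protocol, luminescence reflecting ATP content was read on a multiwell plate reader, and IC50 curves were generated.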

InsR = target: T2, InsR (Homo sapiens, UniProt P06213); assay: Tyrosine kinase assay (Kinase-Glo or AlphaScreen), InsR; details: biochemical tyrosine kinase assay
T2 construct: 6×His- or GST-tagged kinase domain fragments of the corresponding RTKs expressed in baculovirus system; host or cells: baculovirus system
T2 sequence (P06213 1023-1298 limits assumed, species assumed): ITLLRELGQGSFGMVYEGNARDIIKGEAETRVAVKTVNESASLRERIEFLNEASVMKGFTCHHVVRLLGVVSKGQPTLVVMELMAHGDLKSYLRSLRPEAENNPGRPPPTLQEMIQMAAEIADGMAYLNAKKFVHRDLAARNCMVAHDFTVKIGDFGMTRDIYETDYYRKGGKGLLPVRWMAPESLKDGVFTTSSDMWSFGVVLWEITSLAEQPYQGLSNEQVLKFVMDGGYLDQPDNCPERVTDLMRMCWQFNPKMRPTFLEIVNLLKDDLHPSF
Procedure, shortened: as §1

Jak2 = target: T3, Jak2 (Homo sapiens, UniProt O60674); assay: Tyrosine kinase assay (Kinase-Glo or AlphaScreen), Jak2; details: biochemical tyrosine kinase assay
T3 construct: 6×His- or GST-tagged kinase domain fragments of the corresponding RTKs expressed in baculovirus system; host or cells: baculovirus system
T3 sequence (O60674 849-1124 limits assumed, species assumed): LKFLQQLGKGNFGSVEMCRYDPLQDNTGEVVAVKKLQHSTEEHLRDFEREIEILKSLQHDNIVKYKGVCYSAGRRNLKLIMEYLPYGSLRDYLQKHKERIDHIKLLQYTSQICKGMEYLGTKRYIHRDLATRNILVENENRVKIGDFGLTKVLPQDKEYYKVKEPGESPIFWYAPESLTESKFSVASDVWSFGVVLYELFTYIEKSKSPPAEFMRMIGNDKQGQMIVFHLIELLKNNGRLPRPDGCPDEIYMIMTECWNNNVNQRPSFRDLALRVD
Procedure, shortened: as §1

H929 (multiple myeloma) = assay: Cell proliferation inhibition, Cell Titer-Glo, H929; type: cell-based; details: Homo sapiens, NCI-H929; cell proliferation assay, H929 cells
Procedure, shortened: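 Cells seeded at 2500-5000 per well with serially diluted compound for typically 3 days. Viable cells measured by ATP luminescence (Cell Titer-Glo); IC50 from proliferation-inhibition curves.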

T1 sequence (Q9UM73 1116-1392 limits assumed, species assumed): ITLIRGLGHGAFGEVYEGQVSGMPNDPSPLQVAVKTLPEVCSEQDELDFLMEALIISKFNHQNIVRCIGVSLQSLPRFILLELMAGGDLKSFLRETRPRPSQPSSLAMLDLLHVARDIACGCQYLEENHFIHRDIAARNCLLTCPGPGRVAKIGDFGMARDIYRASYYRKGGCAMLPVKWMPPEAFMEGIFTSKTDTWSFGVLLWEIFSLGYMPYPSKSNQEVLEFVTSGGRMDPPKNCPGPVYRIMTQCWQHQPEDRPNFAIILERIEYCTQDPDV

Row | Compound | IC50 (Alk) [µM] | IC50 (Ba/F3) [µM] | IC50 (K562) [µM] | IC50 (Karpas-299) [µM] | IC50 (InsR) [µM] | IC50 (Jak2) [µM] | IC50 (H929 (multiple myeloma)) [µM]
1 | Cc1ccc2c(ccn2C[C@H](O)CNc2cc[nH]c(=O)c2-c2nc3cc4c(cc3[nH]2)C(=O)N(C2CCN(C)CC2)C4=O)c1 [compound 131] | 5 to 15 | > 15 | 5 to 15 | > 15 | 0.5 to 5 | 0.5 to 5 | 0.5 to 5
2 | Cc1ncsc1CCN1C(=O)c2cc3nc(-c4c(NC[C@@H](O)c5cccc(Cl)c5)cc[nH]c4=O)[nH]c3cc2C1=O [compound 32] | > 15 | 0.5 to 5 | > 15 | > 15 | > 15 | > 15 | 5 to 15
3 | Cc1cc(C)c(OC[C@H](O)CNc2cc[nH]c(=O)c2-c2nc3cc4c(cc3[nH]2)C(=O)N(C2CCN(C)CC2)C4=O)c(CS(C)(=O)=O)c1 [compound 84] | 0.5 to 5 | > 15 | > 15 | > 15 | 0.5 to 5 | 0.5 to 5 | 0.5 to 5
4 | CN1CCC(N2C(=O)c3cc4nc(-c5c(NC[C@@H](O)COc6cccc(-c7ccccc7)c6)cc[nH]c5=O)[nH]c4cc3C2=O)CC1 [compound 89] | 0.5 to 5 | 5 to 15 | 5 to 15 | 0.5 to 5 | 0.5 to 5 | 0.5 to 5 | 5 to 15
5 | O=C1c2cc3nc(-c4c(NC[C@@H](O)c5cccc(Cl)c5)cc[nH]c4=O)[nH]c3cc2C(=O)N1[C@H]1CN2CCC1CC2 [compound 34] | 0.5 to 5 | > 15 | > 15 | > 15 | 0.5 to 5 | 0.5 to 5 | 5 to 15
6 | Cc1ccc(OCC(O)CNc2cc[nH]c(=O)c2-c2nc3cc4c(cc3[nH]2)C(=O)N(CC2CCN(CCO)CC2)C4=O)c(C)c1 (stereo not drawn) [compound 37] | 5 to 15 | > 15 | > 15 | > 15 | < 0.5 | 0.5 to 5 | 0.5 to 5
7 | CN1CCC(N2C(=O)c3cc4nc(-c5c(NC[C@@H](O)COc6cccc(OC(F)(F)C(F)F)c6)cc[nH]c5=O)[nH]c4cc3C2=O)CC1 [compound 91] | 0.5 to 5 | > 15 | > 15 | 5 to 15 | 0.5 to 5 | 0.5 to 5 | 0.5 to 5
8 | Cc1ccc(OC[C@@H](O)CNc2cc[nH]c(=O)c2-c2nc3cc4c(cc3[nH]2)C(=O)N([C@H]2CCN(C)C2)C4=O)c(C)c1 [compound 106] | 0.5 to 5 | 5 to 15 | 5 to 15 | > 15 | < 0.5 | 0.5 to 5 | 5 to 15
9 | Cc1ccc(OC[C@H](O)CNc2cc[nH]c(=O)c2-c2nc3cc4c(cc3[nH]2)C(=O)N(C2CCN(C)CC2)C4=O)c(C)c1 [compound 59] | 0.5 to 5 | 0.5 to 5 | 5 to 15 | 0.5 to 5 | < 0.5 | 0.5 to 5 | 0.5 to 5
10 | COc1ccc(OC[C@H](O)CNc2cc[nH]c(=O)c2-c2nc3cc4c(cc3[nH]2)C(=O)N(C2CCN(C)CC2)C4=O)c(OC)c1OC [compound 93] | > 15 | > 15 | > 15 | 5 to 15 | < 0.5 | > 15 | 0.5 to 5
11 | CN1CCC(N2C(=O)c3cc4nc(-c5c(NC[C@@H](O)COc6ccc7ccccc7c6)cc[nH]c5=O)[nH]c4cc3C2=O)CC1 [compound 88] | 0.5 to 5 | 5 to 15 | 5 to 15 | 5 to 15 | 0.5 to 5 | 0.5 to 5 | 5 to 15
12 | CN1CCC(N2C(=O)c3cc4nc(-c5c(NC[C@@H](O)COc6cccc(Cl)c6F)cc[nH]c5=O)[nH]c4cc3C2=O)CC1 [compound 96] | > 15 | > 15 | > 15 | > 15 | < 0.5 | 5 to 15 | 5 to 15

Reference: patent publication US8063225B2, “Tricyclic compound derivatives useful in the treatment of neoplastic diseases, inflammatory disorders and immunomodulatory disorders” (Chembridge Corporation, priority 2006, dated 2011)
